Results on 1 compound are retold here after patent publication EP3011959A1, “Quaternary ammonium compound for use as an inhibitor of protein kinase C alpha” (Santen SAS, priority 2014, dated 2016).

pIC50: −log10 of the molar value.

Assay type in all cases: cell-based
One assay has as its target PKC beta 2 (Homo sapiens, UniProt P05771). Kind of assay: Cellular assay of protein kinase C inhibition, PKC beta 2. Also on record: key: *: IC 50 too high to be measured by apparatus. On the procedure:
(§1) CKC was tested on a cellular assay to evaluate the protein kinase C inhibition (PKC). Four subtypes of PKC are evaluated (α, β1, β2 and δ). Table 1. Cellular assay to evaluate the action of CKC on four subtypes of PKC.

The next assay has as its target PKC beta 1 (Homo sapiens, UniProt P05771). Kind of assay: Cellular assay of protein kinase C inhibition, PKC beta 1. Also on record: key: *: IC 50 too high to be measured by apparatus. On the procedure:
as §1

For the next assay, the target named is PKC delta (Homo sapiens, UniProt Q05655). Kind of assay: Cellular assay of protein kinase C inhibition, PKC delta. On the set-up: key: *: IC 50 too high to be measured by apparatus. On the procedure: as §1
For a further assay, the target named is PKC alpha (Homo sapiens, UniProt P17252). Kind of assay: Cellular assay of protein kinase C inhibition, PKC alpha. The settings on record: read-out: IC 50 PKC alpha. On the procedure: as §1

PKC delta, sequence (Q05655 whole entry): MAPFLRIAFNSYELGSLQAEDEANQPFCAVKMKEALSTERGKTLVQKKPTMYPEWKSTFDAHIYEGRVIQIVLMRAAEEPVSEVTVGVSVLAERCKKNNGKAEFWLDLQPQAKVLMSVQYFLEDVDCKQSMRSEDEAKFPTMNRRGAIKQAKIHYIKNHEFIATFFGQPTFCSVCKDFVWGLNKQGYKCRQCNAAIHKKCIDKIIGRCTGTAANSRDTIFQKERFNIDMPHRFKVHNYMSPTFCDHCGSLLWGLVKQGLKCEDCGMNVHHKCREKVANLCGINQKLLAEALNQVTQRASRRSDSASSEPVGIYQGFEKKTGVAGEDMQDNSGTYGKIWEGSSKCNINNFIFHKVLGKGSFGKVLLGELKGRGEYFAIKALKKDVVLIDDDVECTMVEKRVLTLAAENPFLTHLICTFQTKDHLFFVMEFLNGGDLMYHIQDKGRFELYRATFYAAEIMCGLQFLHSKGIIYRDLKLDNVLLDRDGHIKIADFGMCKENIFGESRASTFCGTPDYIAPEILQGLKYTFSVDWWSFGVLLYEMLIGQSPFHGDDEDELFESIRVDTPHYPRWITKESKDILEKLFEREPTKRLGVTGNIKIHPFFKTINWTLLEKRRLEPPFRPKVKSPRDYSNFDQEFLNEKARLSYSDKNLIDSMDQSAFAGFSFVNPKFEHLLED
PKC beta 1, sequence (P05771 whole entry): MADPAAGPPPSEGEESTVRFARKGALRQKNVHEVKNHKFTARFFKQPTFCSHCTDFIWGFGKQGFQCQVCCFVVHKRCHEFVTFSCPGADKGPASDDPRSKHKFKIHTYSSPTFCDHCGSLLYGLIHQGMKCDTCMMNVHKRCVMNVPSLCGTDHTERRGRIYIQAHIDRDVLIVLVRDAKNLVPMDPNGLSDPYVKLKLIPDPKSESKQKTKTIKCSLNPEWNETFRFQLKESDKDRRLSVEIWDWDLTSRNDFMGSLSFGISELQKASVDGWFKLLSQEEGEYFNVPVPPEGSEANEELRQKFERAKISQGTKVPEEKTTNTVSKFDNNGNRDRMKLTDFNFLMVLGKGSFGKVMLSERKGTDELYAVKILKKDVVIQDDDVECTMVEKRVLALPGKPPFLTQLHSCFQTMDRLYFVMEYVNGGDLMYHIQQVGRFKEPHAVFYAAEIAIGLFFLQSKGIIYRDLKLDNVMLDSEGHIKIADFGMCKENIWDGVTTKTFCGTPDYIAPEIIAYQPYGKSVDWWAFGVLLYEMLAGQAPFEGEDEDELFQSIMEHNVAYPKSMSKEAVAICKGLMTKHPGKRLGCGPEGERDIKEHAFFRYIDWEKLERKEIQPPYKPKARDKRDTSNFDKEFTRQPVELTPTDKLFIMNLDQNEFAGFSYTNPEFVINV
PKC beta 2, sequence (P05771 1-673 isoform P05771-2): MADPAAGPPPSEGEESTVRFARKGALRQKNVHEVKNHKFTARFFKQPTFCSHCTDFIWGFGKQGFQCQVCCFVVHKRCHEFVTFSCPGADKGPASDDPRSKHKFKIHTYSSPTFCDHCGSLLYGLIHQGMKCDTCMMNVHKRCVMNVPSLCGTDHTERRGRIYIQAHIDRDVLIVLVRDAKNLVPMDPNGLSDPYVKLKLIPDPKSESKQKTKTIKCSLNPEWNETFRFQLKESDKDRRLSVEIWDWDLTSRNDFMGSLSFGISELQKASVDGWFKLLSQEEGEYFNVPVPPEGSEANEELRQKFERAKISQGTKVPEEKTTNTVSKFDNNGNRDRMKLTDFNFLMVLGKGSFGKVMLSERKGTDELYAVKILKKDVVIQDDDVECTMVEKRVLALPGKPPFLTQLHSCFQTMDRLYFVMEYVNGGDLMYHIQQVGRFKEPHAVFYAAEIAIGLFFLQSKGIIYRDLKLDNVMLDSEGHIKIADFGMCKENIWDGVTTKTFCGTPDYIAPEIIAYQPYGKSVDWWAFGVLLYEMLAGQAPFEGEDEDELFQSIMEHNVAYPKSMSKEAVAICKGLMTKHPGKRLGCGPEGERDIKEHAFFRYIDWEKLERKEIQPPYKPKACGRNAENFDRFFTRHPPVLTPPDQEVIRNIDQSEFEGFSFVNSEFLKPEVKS

On to `CCCCCCCCCCCCCCCC[N+](C)(C)Cc1ccccc1` [CKC, cetalkonium chloride], for which the “IC 50 PKC beta 2” value against PKC beta 2 is recorded as “*”. The “IC 50 PKC beta 1” value against PKC beta 1 is reported as “*”. Besides, on PKC delta, the “IC 50 PKC delta” value is given as “*”. In addition, the pIC50 at PKC alpha was 5.37.
